In article PMC5533163 (Medicines, 2015):
Where two headings read alike, the source gives them in different places.

Key:
CYP3A4 [1] = target: T1, CYP3A4 (Homo sapiens, UniProt P08684); assay type: in vitro ADME; parameters: The reaction was initiated by the addition of HLM (0.6 mg/mL protein); tissue Corning Life Sciences (Cambridge, MA, USA); host or cells: pooled human liver microsomes, 25 donors, mixed gender; settings: Lineweaver-Burk plot, testosterone metabolism
[2] = humans, cited from earlier work
P-gp = target: T2, P-gp (Homo sapiens, UniProt P08183); experiment: P-gp inhibition, calcein-AM uptake in hMDR1-MDCK-II and MDCK-II cells; assay type: cell-based; settings: calcein-AM 1 µM, mean ± SD of three experiments
T2 construct: host or cells: hMDR1-MDCK-II (canine kidney cells transfected with human MDR1)

CYP2C19 = target: T3, CYP2C19 (Homo sapiens, UniProt P33261); experiment: Reversible inhibition of recombinant CYP2C19; assay type: in vitro ADME; settings: recombinant enzyme, 100–0.4 µM, data not shown
T3 construct: purchased BD Gentest (Woburn, MA, USA)
Procedure: (§1) The assay conditions for determining reversible and time dependent inhibition of CYPs were similar as reported earlier. Test samples or positive controls were serially diluted in a solution (100 µL) of cofactors mix, control protein (0.05 mg of protein/mL) and Glucose-6-phosphate dehydrogenase (G6PDH) to achieve six concentrations (100–0.4 µM). To account for any inherent fluorescence, the plates were incubated at 37 °C for 10 min and fluorescence readings were taken. Enzyme substrate mixture (100 µL) was added to initiate the reaction and the plates were further incubated for 15 (CYP1A2), 30 (CYP3A4, 2C9 and 2C19) or 45 min (CYP2D6). The reaction was stopped by the addition of 75 µL of acetonitrile/0.5M Tris base (80:20). Fluorescence was measured on Spectramax M5 plate reader (Molecular Devices, Sunnyvale, CA, USA) at specified excitation and emission wavelengths for each substrate. IC50 values (co-incubation assay) were obtained from concentration-response curves generated by plotting log concentration versus % control.

CYP1A2 = target: T4, CYP1A2 (Homo sapiens, UniProt P05177); experiment: Inhibition of recombinant CYP1A2; assay type: in vitro ADME; settings: recombinant enzyme
T4 construct: purchased BD Gentest (Woburn, MA, USA)

CYP2D6 [3] = target: T5, CYP2D6 (Homo sapiens, UniProt P10635); experiment: Reversible inhibition and enzyme kinetics of CYP2D6 in pooled HLM (dextromethorphan to dextrorphan); assay type: in vitro ADME; parameters: The reaction was initiated by the addition of HLM (0.6 mg/mL protein); tissue Corning Life Sciences (Cambridge, MA, USA); host or cells: pooled human liver microsomes, 25 donors, mixed gender; settings: for Type of inhibition of CYP2D6 in HLM: Lineweaver-Burk plot
CYP2C9 = target: T6, CYP2C9 (Homo sapiens, UniProt P11712); experiment: Reversible inhibition of recombinant CYP2C9; assay type: in vitro ADME; settings: recombinant enzyme, 100–0.4 µM, data not shown
T6 construct: purchased BD Gentest (Woburn, MA, USA)
Procedure: as §1

CYP3A4 [4] = target: T1, CYP3A4; experiment: Reversible (co-incubation) and time dependent (pre-incubation) inhibition of recombinant CYP3A4, fluorescent substrate BFC; assay type: in vitro ADME; parameters: purchased BD Gentest (Woburn, MA, USA); settings: based on IC50 shift ratio criterion > 1.5
CYP2D6 [5] = target: T5, CYP2D6; experiment: Reversible (co-incubation) and time dependent (pre-incubation) inhibition of recombinant CYP2D6, fluorescent substrate AMMC; assay type: in vitro ADME; parameters: purchased BD Gentest (Woburn, MA, USA); settings: for IC50: recombinant enzyme, mean ± SD of three experiments

T5 sequence (P10635 whole entry): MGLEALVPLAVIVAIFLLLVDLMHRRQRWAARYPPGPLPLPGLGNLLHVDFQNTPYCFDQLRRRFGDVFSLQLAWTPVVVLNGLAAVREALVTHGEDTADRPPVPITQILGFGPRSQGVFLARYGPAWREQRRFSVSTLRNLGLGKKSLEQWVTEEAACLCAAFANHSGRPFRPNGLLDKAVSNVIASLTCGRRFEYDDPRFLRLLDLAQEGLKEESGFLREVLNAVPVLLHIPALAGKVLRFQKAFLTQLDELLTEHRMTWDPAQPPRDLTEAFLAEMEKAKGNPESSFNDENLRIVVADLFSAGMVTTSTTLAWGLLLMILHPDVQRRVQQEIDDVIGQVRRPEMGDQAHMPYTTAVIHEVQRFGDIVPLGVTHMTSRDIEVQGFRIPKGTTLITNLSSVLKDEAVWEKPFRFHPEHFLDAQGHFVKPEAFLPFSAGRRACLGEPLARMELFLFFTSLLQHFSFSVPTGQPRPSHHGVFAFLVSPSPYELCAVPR
T1 sequence (P08684 whole entry): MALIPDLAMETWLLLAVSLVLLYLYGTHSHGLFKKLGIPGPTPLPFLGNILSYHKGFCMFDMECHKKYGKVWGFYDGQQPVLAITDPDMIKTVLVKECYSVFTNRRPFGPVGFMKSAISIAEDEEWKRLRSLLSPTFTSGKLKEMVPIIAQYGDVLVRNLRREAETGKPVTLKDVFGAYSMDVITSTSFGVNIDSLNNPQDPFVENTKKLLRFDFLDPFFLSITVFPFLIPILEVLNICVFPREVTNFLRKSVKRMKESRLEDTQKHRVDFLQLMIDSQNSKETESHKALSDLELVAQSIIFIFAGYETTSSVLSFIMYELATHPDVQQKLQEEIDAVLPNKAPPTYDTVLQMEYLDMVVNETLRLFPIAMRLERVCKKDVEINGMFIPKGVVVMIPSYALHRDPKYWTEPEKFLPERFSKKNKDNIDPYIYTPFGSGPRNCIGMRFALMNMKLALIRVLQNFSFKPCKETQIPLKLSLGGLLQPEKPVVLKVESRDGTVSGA
T6 sequence (P11712 whole entry): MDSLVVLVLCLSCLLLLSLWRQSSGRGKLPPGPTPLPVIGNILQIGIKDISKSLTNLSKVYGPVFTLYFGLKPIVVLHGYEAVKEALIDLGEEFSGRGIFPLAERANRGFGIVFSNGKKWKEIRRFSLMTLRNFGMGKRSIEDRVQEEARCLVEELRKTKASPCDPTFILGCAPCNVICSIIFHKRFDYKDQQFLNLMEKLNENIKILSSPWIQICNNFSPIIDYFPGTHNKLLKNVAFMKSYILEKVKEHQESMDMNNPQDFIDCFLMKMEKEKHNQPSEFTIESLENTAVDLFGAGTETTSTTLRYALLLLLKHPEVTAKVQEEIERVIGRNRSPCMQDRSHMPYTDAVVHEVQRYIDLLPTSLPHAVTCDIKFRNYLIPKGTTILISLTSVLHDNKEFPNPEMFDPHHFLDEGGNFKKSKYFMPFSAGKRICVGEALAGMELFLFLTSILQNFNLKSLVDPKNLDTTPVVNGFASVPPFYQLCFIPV
T3 sequence (P33261 whole entry): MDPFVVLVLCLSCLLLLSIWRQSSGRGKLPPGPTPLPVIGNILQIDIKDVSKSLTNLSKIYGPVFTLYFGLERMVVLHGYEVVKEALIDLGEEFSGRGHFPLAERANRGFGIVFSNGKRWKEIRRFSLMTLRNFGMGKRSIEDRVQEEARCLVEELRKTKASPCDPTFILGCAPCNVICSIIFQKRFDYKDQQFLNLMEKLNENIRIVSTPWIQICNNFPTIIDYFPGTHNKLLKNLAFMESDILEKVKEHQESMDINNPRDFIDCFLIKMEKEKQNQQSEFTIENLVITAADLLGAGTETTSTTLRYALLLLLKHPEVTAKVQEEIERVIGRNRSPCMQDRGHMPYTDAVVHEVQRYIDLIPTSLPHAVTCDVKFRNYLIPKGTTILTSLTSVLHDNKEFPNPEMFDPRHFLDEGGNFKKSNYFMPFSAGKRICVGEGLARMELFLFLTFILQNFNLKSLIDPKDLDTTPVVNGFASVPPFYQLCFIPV
T2 sequence (P08183 whole entry): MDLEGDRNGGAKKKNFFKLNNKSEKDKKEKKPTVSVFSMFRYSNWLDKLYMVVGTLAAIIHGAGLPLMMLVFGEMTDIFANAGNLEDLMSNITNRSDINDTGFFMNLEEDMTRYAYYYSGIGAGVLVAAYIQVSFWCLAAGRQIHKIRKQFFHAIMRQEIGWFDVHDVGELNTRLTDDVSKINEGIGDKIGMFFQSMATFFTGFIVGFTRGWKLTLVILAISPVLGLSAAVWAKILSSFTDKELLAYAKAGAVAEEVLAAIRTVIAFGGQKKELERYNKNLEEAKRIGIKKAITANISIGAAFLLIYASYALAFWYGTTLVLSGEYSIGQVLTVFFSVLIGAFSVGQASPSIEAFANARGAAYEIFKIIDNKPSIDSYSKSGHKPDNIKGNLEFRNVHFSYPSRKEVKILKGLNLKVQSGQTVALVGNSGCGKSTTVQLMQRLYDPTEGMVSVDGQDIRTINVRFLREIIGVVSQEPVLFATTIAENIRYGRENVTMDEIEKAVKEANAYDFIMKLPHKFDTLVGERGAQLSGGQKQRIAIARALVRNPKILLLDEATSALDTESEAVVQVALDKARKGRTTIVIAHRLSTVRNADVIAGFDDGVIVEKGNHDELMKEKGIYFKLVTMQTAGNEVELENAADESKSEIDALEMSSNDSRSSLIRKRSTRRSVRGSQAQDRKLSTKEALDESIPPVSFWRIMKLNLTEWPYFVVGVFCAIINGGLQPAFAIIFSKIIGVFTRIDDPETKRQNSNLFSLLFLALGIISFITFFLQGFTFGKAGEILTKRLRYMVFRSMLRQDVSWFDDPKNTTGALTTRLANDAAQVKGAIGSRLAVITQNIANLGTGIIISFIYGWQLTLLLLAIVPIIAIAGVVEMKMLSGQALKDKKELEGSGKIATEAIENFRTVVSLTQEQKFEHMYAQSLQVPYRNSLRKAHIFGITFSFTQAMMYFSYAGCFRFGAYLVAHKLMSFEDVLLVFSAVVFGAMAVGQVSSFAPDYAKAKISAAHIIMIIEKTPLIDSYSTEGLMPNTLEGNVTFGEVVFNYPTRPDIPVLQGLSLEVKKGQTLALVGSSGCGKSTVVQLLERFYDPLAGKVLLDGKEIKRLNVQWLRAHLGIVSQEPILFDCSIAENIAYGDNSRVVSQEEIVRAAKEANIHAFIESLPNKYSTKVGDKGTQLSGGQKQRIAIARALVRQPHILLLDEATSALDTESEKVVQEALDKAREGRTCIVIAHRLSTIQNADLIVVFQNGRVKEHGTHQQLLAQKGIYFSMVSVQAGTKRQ
T4 sequence (P05177 whole entry): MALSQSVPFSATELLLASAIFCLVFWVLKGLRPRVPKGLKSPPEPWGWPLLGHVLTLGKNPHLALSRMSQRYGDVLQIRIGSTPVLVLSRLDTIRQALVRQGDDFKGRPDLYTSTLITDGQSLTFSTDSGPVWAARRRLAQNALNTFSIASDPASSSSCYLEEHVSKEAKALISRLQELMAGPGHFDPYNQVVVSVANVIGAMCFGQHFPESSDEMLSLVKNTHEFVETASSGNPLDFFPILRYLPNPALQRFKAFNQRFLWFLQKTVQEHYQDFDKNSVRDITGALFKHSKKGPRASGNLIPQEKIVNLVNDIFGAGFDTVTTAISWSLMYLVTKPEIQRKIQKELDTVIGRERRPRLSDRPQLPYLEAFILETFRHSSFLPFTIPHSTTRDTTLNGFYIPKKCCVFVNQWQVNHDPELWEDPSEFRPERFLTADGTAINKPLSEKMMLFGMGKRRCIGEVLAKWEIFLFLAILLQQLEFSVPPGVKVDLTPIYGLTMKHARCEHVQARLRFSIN

Type of inhibition of CYP3A4 in HLM (CYP3A4 [1]): competitive inhibition
Type of inhibition of CYP3A4 in HLM (CYP3A4 [1]; listed as vinpocetine): competitive
EC50 (P-gp): 8 µM
Inhibition of CYP2C19 (CYP2C19): no activity
Inhibition of CYP2C19 (CYP2C19; listed as vinpocetine): No inhibition
Inhibition of CYP1A2 (CYP1A2): no activity
Type of inhibition of CYP2D6 in HLM (CYP2D6 [3]; dextromethorphan metabolism): non-competitive inhibition
Type of inhibition of CYP2D6 in HLM (CYP2D6 [3]; dextromethorphan metabolism, listed as vinpocetine): competitive
IC50 at 20 min (CYP2D6 [3]; human, pooled human liver microsomes, pH 7.4, probe dextromethorphan (to dextrorphan), pooled HLM, dextromethorphan as probe substrate): 19 µM
Ki (CYP2D6 [3]; pooled HLM, dextromethorphan metabolism, Dixon plot): 26 µM
Inhibition of CYP2C9 (CYP2C9): no activity
Inhibition of CYP2C9 (CYP2C9; listed as vinpocetine): No inhibition
Time dependent inhibition (TDI) of CYP3A4 (CYP3A4 [4]): no TDI
Time dependent inhibition (TDI) of CYP2D6 (CYP2D6 [5]; based on IC50 shift ratio criterion > 1.5): no TDI
IC50 (CYP2D6 [5]; 30 min pre-incubation (TDI assay), read-out: CYP2D6 (recombinant) IC50 Pre-incubation): 37 ± 1.6 µM
IC50 (CYP2D6 [5]; co-incubation (reversible inhibition), read-out: CYP2D6 (recombinant) IC50 Co-incubation): 6.5 ± 1.1 µM
SMILES: CCOC(=O)C1=C[C@]2(CC)CCCN3CCc4c(n1c1ccccc41)[C@@H]32 [Vinpocetine, ethyl apovincaminate]
Maximum plasma concentration (Cmax) ([2]; oral): 0.06 µg/mL
Oral bioavailability [2]: 6%
